# Data as given in patent publication US20190185479A1, “BICYCLIC NITROGENATED HETEROCYCLIC COMPOUND” (MITSUBISHI TANABE PHARMA CORPORATION, priority 2016, published 2019).
# Tests used:
# Type in all cases: biochemical
# Human PDE7B (hPDE7B) = biological target: T1, Human PDE7B (hPDE7B) (Homo sapiens, UniProt Q9NP56); assay: Measurement of PDE7 inhibitory activity (Experimental Example 1; residual cAMP, LANCE Ultra cAMP TR-FRET); conditions: cAMP 3 nmol/L, room temperature 60 minutes
# T1 construct: made in house; host or cells: COS-7 cells
# T1 sequence (Q9NP56 whole entry): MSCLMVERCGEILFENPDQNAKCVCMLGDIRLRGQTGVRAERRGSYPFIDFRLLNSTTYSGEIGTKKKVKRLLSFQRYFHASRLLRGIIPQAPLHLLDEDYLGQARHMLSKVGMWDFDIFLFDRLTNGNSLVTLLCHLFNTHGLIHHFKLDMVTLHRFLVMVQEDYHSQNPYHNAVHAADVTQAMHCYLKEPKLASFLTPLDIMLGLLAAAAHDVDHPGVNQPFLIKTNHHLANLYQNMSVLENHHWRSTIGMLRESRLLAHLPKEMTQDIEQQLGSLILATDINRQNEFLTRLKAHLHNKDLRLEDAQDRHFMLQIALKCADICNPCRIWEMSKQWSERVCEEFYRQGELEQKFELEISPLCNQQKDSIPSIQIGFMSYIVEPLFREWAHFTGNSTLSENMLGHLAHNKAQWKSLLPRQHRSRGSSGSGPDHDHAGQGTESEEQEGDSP
# How it was run: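 hPDE7B from transfected COS-7 cells reacted with 3 nmol/L cAMP (final) and compound (2% DMSO) in 50 mmol/L Tris-HCl pH 7.5, 1 mmol/L MgCl2, 0.1% BSA, 0.5 mmol/L DTT, 60 min at room temperature. Reaction stopped with IBMX; residual cAMP measured by TR-FRET. Inhibition scaled between no-compound and no-enzyme controls.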
# hPDE4D = biological target: T2, hPDE4D (Homo sapiens, UniProt Q08499); assay: PDE4 inhibition assay (IC50), Experimental Example 3; conditions: for IC50: hPDE4D, read-out: PDE inhibition assay IC50, PDE4; for inhibition at 10 µM: at 10 μmol/L, read-out: inhibition rate (%) at prescribed concentration, PDE4
# T2 construct: purchased SB Drug Discovery
# T2 sequence (Q08499 whole entry): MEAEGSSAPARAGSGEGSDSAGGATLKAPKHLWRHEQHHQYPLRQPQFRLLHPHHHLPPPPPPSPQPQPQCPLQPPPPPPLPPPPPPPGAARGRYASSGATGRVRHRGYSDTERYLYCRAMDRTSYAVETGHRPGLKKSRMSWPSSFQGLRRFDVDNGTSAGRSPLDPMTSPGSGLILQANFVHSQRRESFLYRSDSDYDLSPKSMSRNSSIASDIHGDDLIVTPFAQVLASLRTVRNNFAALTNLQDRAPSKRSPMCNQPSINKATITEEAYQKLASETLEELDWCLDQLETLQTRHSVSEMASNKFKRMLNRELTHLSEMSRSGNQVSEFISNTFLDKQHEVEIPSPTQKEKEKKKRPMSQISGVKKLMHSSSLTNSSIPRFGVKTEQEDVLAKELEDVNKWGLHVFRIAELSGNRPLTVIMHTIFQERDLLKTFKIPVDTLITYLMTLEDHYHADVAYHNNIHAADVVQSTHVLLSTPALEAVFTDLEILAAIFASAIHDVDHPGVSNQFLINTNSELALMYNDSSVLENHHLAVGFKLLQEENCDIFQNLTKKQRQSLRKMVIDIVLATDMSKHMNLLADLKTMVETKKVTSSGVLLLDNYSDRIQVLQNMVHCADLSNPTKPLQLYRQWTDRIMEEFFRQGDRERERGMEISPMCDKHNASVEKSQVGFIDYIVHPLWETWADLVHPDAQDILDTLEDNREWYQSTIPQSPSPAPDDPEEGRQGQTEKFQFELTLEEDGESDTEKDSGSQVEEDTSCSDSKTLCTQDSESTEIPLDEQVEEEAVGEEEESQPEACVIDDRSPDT
# How it was run: (§1)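 Recombinant human enzymes incubated with compound and 3 nmol/L cAMP (final) in Tris-HCl pH 7.5 buffer with MgCl2, BSA, DTT, 2% DMSO final, 60 min at room temperature. Residual cAMP measured by TR-FRET (LANCE Ultra), reaction stopped with 0.5 mmol/L IBMX. IC50 from inhibition relative to no-compound (0%) and no-enzyme (100%) controls.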
# hPDE8B = biological target: T3, hPDE8B (Homo sapiens, UniProt O95263); assay: PDE8 inhibition assay (IC50), Experimental Example 3; conditions: for IC50: hPDE8B, read-out: PDE inhibition assay IC50, PDE8
# T3 construct: purchased SB Drug Discovery
# T3 sequence (O95263 whole entry): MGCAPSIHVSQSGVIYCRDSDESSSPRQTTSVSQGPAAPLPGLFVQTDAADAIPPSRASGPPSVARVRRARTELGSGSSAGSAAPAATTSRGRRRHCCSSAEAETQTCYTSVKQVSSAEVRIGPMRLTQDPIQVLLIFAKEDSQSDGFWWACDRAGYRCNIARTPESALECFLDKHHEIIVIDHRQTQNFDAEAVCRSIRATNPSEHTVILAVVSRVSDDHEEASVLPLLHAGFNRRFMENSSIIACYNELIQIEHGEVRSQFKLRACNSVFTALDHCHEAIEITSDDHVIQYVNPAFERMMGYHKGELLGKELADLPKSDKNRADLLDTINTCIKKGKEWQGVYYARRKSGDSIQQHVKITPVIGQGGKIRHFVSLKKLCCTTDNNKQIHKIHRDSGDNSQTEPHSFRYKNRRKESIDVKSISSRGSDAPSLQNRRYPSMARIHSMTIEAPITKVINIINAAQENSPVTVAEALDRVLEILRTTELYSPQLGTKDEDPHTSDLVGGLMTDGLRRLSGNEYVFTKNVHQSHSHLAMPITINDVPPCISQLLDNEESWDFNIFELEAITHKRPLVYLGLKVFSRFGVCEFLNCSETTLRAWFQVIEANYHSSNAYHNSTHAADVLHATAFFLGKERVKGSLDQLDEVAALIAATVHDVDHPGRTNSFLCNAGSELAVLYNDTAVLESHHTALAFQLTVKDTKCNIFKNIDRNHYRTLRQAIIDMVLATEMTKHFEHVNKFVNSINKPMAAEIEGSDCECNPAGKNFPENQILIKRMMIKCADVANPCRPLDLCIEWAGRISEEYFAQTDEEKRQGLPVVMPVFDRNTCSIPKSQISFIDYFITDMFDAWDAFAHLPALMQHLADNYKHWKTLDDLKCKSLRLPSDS
# How it was run: as §1
# hPDE10A = hPDE10A (Homo sapiens, UniProt Q9Y233); assay: PDE10 inhibition assay (IC50), Experimental Example 3; conditions: for IC50: hPDE10A, read-out: PDE inhibition assay IC50, PDE10; for inhibition at 10 µM: at 10 μmol/L, read-out: inhibition rate (%) at prescribed concentration, PDE10
# Sequence of hPDE10A (Q9Y233 290-1055 limits assumed): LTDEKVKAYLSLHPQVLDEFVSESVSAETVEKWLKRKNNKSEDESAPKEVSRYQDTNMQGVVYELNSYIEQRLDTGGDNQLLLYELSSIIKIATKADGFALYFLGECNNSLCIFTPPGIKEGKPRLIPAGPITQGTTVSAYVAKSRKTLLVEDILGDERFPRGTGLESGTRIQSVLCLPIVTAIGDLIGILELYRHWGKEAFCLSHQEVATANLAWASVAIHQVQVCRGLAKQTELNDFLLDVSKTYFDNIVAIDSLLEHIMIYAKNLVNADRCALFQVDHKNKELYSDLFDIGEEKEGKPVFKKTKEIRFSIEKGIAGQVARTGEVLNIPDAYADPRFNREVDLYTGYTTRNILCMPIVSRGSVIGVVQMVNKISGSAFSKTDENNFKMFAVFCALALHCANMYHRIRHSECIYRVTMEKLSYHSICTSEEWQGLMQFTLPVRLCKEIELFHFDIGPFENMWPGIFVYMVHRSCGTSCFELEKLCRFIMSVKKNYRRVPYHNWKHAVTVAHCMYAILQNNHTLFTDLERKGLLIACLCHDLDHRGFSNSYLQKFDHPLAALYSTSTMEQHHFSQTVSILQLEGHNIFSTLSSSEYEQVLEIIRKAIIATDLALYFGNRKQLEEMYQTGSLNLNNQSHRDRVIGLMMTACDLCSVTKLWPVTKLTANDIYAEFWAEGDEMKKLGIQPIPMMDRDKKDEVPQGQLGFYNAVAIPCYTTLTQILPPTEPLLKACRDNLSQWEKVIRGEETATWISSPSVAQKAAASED
# How it was run: as §1
Structure (SMILES),IC50 (Human PDE7B (hPDE7B)) [nM],IC50 (hPDE4D) [nM],IC50 (hPDE8B) [nM],IC50 (hPDE10A) [nM],"inhibition at 1 µM (hPDE8B; at 1 μmol/L, read-out: inhibition rate (%) at prescribed concentration, PDE8) [%]",inhibition at 10 µM (hPDE4D) [%],inhibition at 10 µM (hPDE10A) [%],"inhibition at 10 µM (hPDE8B; at 10 μmol/L, read-out: inhibition rate (%) at prescribed concentration, PDE8) [%]"
C[C@@H]1C[C@H](C)CN(c2nnc3c(N)nccn23)C1 [Example 52],80,8190,1160,6800,–,–,–,–
Nc1nccn2c(C3CC4(CC4)C3)nnc12 [Example 20],80,–,1580,–,–,40,22,–
"Cc1cnc(N)c2nnc(N3CCCC(C)(C)C3)n12 [Example 80, 3-(3,3-dimethylpiperidin-1-yl)-5-methyl[1,2,4]triazolo[4,3-a]pyrazin-8-amine]",3,6000,3000,8000,–,–,–,–
"Nc1ncnn2c(C3CCCCC3)nnc12 [Example 68, 3-cyclohexyl[1,2,4]triazolo[3,4-f][1,2,4]triazin-8-amine]",20,4130,500,–,–,–,34,–
"C[C@H]1CC[C@H](n2nnc3c(N)ncnc32)CC1 [Example 8, 3-(trans-4-methylcyclohexyl)-3H-[1,2,3]triazolo[4,5-d]pyrimidin-7-amine]",10,2130,240,–,–,–,48,–
"C[C@@H]1CCCCN1c1nnc2c(N)nccn12 [Example 22, 3-(2-methylpiperidin-1-yl) [1,2,4]triazolo[4,3-a]pyrazin-8-amine]",40,8300,5800,5500,–,–,–,–

# Now from value to molecule:
IC50 (Human PDE7B (hPDE7B)) [nM],IC50 (hPDE4D) [nM],IC50 (hPDE8B) [nM],IC50 (hPDE10A) [nM],"inhibition at 1 µM (hPDE8B; at 1 μmol/L, read-out: inhibition rate (%) at prescribed concentration, PDE8) [%]",inhibition at 10 µM (hPDE4D) [%],inhibition at 10 µM (hPDE10A) [%],"inhibition at 10 µM (hPDE8B; at 10 μmol/L, read-out: inhibition rate (%) at prescribed concentration, PDE8) [%]",Structure (SMILES)
< 10,10500,1500,10200,–,–,–,–,"CC1(C)CCCC(c2nnc3c(N)nccn23)C1 (single isomer, unassigned) [Example 207, 3-(3,3-dimethylcyclohexyl) [1,2,4]triazolo[4,3-a]pyrazin-8-amine]"
40,6980,–,12200,79,–,–,–,"Nc1ncnc2c1nnn2C1CCCCC1F (single isomer, unassigned) [Example 194, 3-(cis-2-fluorocyclohexyl)-3H-[1,2,3]triazolo[4,5-d]pyrimidin-7-amine]"
40,–,4180,8250,–,45,–,–,"CC1CCCCC1n1nnc2c(N)ncnc21 (single isomer, unassigned) [Example 192, 3-(trans-2-methylcyclohexyl)-3H-[1,2,3]triazolo[4,5-d]pyrimidin-7-amine]"
50,5720,–,–,–,–,48,49,"Nc1nccn2c(C3(F)CCCCC3)nnc12 [Example 142, 3-(1-fluorocyclohexyl) [1,2,4]triazolo[4,3-a]pyrazin-8-amine]"
70,–,2950,7200,–,48,–,–,"Cc1cnc(N)c2nnc(C3CCCCC3)n12 [Example 171, 3-cyclohexyl-5-methyl[1,2,4]triazolo[4,3-a]pyrazin-8-amine]"
